Results from ChEMBL document CHEMBL1201862, “PubChem BioAssay data set” (2004).
Activity calls are given as the source filed them.

Experiments:
[1] = target: T1, Carboxy-terminal domain RNA polymerase II polypeptide A small phosphatase 1 (Homo sapiens, UniProt Q9GZU7); assay: inhibitors of CTDSP1, concentration-response testing, biochemical assay, absorbance-based, actives from ultra-high-throughput screening (AID 540297); assay type: functional
T1 sequence (Q9GZU7 whole entry): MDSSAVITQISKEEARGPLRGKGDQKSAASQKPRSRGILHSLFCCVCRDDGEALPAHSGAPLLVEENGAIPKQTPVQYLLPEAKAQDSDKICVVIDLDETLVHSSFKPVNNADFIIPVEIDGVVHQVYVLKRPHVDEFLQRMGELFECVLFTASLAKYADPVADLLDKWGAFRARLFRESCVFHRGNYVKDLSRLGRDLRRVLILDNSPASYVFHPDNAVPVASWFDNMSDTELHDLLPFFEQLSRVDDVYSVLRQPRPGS

[2] = target: FAD-linked sulfhydryl oxidase ALR (Homo sapiens, UniProt P55789); assay: inhibitors of human ALR sulfhydryl oxidase, dose response, biochemical, H2O2 detection, luminescence, cherry-pick (AID 493248)
Sequence of FAD-linked sulfhydryl oxidase ALR (P55789 whole entry): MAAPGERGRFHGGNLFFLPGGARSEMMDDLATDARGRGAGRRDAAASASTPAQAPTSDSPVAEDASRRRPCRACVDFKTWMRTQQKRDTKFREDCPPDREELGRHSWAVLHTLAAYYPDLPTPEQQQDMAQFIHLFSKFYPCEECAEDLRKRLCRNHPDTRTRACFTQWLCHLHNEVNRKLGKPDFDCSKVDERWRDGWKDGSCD

[3] = target: T2, Heat shock factor protein 1 (Mus musculus, UniProt P38532); assay: inhibition of MG132-induced HSE-luciferase signal, confirmation, cell-based, NIH3T3, luminescence, dose retest (AID 2382); assay type: functional;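 further: NIH3T3 fibroblasts with HSF1-driven luciferase reporter stressed by proteasome inhibitor MG132; luminescence from HSF1-driven luciferase expression after 8 hours of MG132 stress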
T2 sequence (P38532 whole entry): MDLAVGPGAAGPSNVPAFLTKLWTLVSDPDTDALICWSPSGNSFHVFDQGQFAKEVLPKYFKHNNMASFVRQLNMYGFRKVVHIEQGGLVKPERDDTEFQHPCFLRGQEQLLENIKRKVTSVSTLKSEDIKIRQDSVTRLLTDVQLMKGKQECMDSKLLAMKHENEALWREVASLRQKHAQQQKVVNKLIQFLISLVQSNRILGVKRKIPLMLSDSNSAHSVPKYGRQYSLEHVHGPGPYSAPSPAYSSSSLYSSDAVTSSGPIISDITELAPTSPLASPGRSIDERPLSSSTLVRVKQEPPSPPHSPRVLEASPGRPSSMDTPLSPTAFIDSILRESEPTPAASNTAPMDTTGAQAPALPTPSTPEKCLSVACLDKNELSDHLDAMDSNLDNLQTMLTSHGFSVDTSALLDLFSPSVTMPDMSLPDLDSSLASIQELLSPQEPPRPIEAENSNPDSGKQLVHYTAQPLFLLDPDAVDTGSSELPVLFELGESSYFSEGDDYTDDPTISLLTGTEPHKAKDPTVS

[4] = inhibitors of intracellular T. cruzi replication, confirmation, NIH3T3 host cells, beta-gal luminescence (AID 2044); assay type: functional, cell-based;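 further: intracellular parasites grown in NIH/3T3 mouse fibroblasts as host cells; luminescent beta-galactosidase reporter signal from transgenic T. cruzi replicating inside host cells; inhibitors lower the luminescence signal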
[5] = cytotoxicity toward NIH3T3 fibroblasts, dose response, counter-screen, cell-based, ATP luminescence, mouse fibroblasts (AID 2010); assay type: functional;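 further: cells exposed to compound for about 90 hours before reading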
[6] = target: T3, Microphthalmia-associated transcription factor (Homo sapiens, UniProt O75030); assay: TRPM1 promoter luciferase signal decrease, dose response, MITF inhibitor project, cell-based, SK-MEL-5, cherry-picked, set 3 (AID 493073); assay type: functional
T3 sequence (O75030 whole entry): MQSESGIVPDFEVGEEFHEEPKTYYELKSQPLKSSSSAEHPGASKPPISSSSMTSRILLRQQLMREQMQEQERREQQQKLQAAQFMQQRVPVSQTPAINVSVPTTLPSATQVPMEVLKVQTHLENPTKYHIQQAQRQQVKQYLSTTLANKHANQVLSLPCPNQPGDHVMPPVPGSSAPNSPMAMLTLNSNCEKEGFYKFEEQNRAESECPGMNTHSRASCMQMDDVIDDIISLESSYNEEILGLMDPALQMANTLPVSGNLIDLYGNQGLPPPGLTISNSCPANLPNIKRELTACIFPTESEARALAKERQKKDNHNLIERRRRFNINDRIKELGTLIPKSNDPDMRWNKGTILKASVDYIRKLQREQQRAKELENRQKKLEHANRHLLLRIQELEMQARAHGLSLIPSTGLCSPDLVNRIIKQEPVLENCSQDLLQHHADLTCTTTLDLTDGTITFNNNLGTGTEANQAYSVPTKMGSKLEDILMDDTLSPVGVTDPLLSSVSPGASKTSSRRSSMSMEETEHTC

Protein RecA = target: T4, Protein RecA (Mycobacterium tuberculosis, UniProt P9WHJ3); assay: Fluorescence Cell-Free Homogeneous Dose Retest to Identify Inhibitors of RecA-Intein Splicing Activity. [Related pubchem assays (depositor defined):AID2097, AID2223, AID489010, AID492950]; assay type: functional
T4 sequence (P9WHJ3 whole entry): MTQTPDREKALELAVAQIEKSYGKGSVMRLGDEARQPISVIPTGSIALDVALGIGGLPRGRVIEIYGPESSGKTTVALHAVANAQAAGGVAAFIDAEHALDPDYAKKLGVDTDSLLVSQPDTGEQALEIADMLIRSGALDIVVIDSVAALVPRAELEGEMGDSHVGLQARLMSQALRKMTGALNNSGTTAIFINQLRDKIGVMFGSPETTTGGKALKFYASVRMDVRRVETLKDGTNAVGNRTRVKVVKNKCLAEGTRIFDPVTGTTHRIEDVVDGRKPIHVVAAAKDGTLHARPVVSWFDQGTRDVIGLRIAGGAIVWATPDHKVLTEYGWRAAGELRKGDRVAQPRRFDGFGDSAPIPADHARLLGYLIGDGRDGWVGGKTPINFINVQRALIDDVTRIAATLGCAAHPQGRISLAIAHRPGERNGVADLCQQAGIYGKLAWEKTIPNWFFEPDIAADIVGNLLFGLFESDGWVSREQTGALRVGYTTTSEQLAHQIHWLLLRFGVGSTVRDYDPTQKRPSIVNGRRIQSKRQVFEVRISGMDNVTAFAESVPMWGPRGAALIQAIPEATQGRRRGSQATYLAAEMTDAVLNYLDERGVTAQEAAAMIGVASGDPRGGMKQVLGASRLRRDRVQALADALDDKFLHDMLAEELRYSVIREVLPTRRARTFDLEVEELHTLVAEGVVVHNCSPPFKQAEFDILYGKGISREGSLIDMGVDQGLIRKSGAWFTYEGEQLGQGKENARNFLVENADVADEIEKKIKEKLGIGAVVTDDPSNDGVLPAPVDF

[7] = NIH-3T3 fibroblast cytotoxicity, dose response, cytotoxicity control, cell-based, fluorescence, Alamar Blue, secondary assay (AID 2327); assay type: functional;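 further: NIH-3T3 mouse fibroblasts cultured with fluconazole at 8 µg/mL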
[8] = C. albicans growth with fluconazole, confirmation, fluorescence, retest (AID 2467); assay type: functional, cell-based
[9] = target: T5, Replicative DNA helicase DnaB (Mycobacterium tuberculosis, UniProt P9WMR3); assay: DnaB intein splicing inhibitors, dose response, biochemical, cell-free fluorescence (AID 449749); assay type: functional
T5 sequence (P9WMR3 whole entry): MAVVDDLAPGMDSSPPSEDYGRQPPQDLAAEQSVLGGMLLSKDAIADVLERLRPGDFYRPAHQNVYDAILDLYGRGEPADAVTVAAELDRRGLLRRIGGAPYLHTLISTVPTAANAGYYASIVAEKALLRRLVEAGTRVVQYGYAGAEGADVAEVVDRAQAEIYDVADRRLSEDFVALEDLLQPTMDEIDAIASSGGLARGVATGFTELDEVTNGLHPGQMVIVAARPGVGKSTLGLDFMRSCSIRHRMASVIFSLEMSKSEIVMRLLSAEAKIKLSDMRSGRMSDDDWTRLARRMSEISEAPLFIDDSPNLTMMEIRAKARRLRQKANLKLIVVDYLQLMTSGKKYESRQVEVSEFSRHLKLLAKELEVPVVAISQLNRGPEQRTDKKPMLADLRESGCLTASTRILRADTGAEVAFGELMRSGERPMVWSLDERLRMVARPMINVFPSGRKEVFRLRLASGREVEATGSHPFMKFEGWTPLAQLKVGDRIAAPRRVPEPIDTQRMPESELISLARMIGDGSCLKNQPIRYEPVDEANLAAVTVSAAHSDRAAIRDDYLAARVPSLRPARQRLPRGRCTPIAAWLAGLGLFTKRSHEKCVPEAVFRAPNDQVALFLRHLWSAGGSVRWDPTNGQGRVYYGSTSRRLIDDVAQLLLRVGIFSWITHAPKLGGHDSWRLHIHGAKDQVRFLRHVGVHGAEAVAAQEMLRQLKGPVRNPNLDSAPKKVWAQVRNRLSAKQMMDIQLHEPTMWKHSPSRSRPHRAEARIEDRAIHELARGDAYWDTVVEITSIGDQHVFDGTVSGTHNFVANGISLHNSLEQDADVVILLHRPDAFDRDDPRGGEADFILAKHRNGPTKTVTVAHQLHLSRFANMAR

[10] = target: T6, Zinc finger protein mex-5 (Caenorhabditis elegans, UniProt Q9XUB2); assay: MEX-5/TCR-2 RNA interaction inhibitors, dose response, biochemical, C. elegans, fluorescence polarization (AID 1960)
T6 sequence (Q9XUB2 whole entry): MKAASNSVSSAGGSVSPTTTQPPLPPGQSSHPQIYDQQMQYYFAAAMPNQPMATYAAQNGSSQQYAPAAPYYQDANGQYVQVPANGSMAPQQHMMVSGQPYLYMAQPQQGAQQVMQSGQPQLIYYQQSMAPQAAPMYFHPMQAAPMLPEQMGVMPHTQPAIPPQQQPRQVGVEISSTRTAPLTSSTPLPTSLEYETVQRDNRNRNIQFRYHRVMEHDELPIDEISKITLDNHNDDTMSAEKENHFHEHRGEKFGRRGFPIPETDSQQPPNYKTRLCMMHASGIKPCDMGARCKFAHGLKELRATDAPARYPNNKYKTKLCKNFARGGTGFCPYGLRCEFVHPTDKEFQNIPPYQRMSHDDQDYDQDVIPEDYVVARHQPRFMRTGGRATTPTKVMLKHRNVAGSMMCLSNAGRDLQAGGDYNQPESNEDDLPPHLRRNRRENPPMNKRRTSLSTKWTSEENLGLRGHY

cells [11] = assay type: functional, cell-based
[12] = target: T7, RNA-binding protein pos-1 (Caenorhabditis elegans, UniProt G5EF15); assay: inhibitors of POS-1/mex-3 RNA binding, dose response, biochemical, fluorescence polarization (AID 1964);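 further: purified POS-1 fused to maltose binding protein made in E. coli; potency of compounds blocking POS-1 binding to fluorescent RNA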
T7 sequence (G5EF15 whole entry): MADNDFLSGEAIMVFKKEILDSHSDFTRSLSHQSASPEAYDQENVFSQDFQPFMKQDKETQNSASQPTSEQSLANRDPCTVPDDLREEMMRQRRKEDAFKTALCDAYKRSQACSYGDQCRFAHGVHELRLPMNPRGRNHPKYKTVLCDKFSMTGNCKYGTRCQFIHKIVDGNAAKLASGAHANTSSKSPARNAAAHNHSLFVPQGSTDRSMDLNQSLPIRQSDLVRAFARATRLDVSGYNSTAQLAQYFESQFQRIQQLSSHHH

cells [13] = assay type: functional, cell-based; remark: listed apart in the source
INS1 = assay: beta cell apoptosis inhibitors, cytokine rescue, dose response, luminescence, retest (AID 449756); assay type: functional, cell-based; settings: Rattus norvegicus;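 further: cell death triggered by IL-1 beta plus TNF-alpha plus IFN-gamma mixture; protective hits raise ATP signal compared with cytokine alone wells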
Genome polyprotein = Genome polyprotein (dengue virus type 2, UniProt P29990); assay: Dengue-2 NS5 methyltransferase inhibitors, primary screen, biochemical, confirmation dose response (AID 588689); assay type: functional
Sequence of Genome polyprotein (P29990 2492-3391 limits assumed): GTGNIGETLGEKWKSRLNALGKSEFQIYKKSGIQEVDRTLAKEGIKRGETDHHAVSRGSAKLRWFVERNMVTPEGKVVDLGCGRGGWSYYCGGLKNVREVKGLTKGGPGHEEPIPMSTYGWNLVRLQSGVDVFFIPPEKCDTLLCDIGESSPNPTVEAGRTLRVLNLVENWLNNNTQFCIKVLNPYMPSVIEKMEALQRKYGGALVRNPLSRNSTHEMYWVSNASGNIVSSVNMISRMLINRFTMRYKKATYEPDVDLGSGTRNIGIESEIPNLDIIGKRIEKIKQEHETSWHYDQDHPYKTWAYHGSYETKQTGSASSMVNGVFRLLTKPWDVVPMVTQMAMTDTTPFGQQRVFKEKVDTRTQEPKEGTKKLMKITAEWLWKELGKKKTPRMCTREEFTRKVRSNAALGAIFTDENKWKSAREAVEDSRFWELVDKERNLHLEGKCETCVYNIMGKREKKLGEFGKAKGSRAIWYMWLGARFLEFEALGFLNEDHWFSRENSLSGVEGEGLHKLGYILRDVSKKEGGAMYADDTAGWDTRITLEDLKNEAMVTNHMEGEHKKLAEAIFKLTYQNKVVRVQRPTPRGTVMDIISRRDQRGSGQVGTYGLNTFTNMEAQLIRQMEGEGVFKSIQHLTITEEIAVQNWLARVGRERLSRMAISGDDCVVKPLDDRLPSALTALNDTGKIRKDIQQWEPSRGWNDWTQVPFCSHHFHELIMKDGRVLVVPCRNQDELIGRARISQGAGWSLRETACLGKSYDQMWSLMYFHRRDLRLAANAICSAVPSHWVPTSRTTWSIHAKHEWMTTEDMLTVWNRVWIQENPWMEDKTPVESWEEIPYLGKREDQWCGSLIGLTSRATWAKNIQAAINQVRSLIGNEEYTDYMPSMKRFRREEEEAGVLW

[14] = target: Heat shock protein HSP 90-alpha (Homo sapiens, UniProt P07900); assay type: functional, organism-based
[15] = Luminescence Cell-Based Dose Retest to Confirm Inhibitors of Cancer Stem Cells. [Related pubchem assays (depositor defined):AID2717, AID2721]; assay type: functional; settings: Homo sapiens

Question: With O=C(Nc1ccc(F)cc1)c1cccc(N2C(=O)c3ccccc3C2=O)c1 as the compound, how does the IC50 [1] read?
Answer: 11.1 µM (active)

Question: Which AC50 [2] does the source give for Oc1ccc(Br)cc1-c1cc(-c2ccco2)[nH]n1 here?
Answer: 3.51 µM (active)

Question: With O=C(CCl)Nc1ccc(-c2ccccc2)cc1 as the compound, how does the EC50 [3] read?
Answer: 9.64 µM (active)

Question: And the EC50 [4]?
Answer: 1.69 µM (active)

Question: And the EC50 [5]?
Answer: < 6 µM (inconclusive)

Question: What about the AC50 [6] of the same compound?
Answer: 7.3 µM (active)

Question: What about the EC50 (Protein RecA) of the same compound?
Answer: 0.587 µM (active)

Question: And the EC50 [7]?
Answer: 4.59 µM (inconclusive)

Question: And the EC50 [8]?
Answer: 1.77 µM (active)

Question: And the AC50 [9]?
Answer: 20.5 µM (active)

Question: Which EC50 [10] does the source give for CC1(OC(=O)c2cccs2)C(=O)C=C2C=C(C3CC3)OC=C2C1=O (centres undefined) here?
Answer: 33 µM (active)

Question: What about the EC50 (cells [11]) of the same compound?
Answer: > 350 µM (not active)

Question: And the EC50 [12]?
Answer: 42.3 µM (active)

Question: And the EC50 (cells [13])?
Answer: > 350 µM (not active)

Question: Which IC50 [1] does the source give for C=C1c2cccc(OC)c2O[C@H](C(=O)OCC)[C@@H]1CC(CC)CCCC (some centres undefined) here?
Answer: 52.1 µM (active)

Question: Which IC50 [1] does the source give for C[N+]1=C(/C=C/Nc2ccccc2Cl)C(C)(C)c2ccccc21 here?
Answer: 5.96 µM (active)

Question: What about the AC50 (INS1) of the same compound?
Answer: 7.84 µM (active)

Question: For COc1cc(/C=C2\SC(=S)N(CCCCC(=O)O)C2=O)ccc1OS(=O)(=O)c1ccc(C)cc1, which IC50 [1] is on record?
Answer: 4.16 µM (active)

Question: And the IC50 (Genome polyprotein)?
Answer: 39.8 µM (active)

Question: Which AC50 [2] does the source give for O=[N+]([O-])c1ccc(CSC2=NCCN2)cc1 here?
Answer: 0.04 µM (active)

Question: With COc1ccc2cc3cc(C(=O)NCc4ccco4)oc3nc2c1 as the compound, how does the IC50 [1] read?
Answer: 10.1 µM (active)

Question: Which AC50 [2] does the source give for Fc1ccc(CSc2nnc(-c3cnccn3)n2Cc2ccco2)cc1 here?
Answer: 3.85 µM (active)

Question: For CC(C)Oc1ccc(C(=O)/C=C2/C(=O)Nc3ccccc32)cc1, which AC50 [14] is on record?
Answer: 1.94 µM (active)

Question: What about the AC50 [15] of the same compound?
Answer: 4.39 µM (active)
